Read-outs that look alike come from different tables or passages of the source. Values belong to the compound of their own block, whether it stands above or below them.
Columns and labels:
[1] = tested on: Myzus persicae; assay: Myzus persicae spray test (MYZUPE); assay type: in vivo; conditions: Chinese cabbage leaf discs, after 6 days
Protocol: Myzus persicae—spray test (MYZUPE)
• Solvent: 78 parts by weight of acetone • 1.5 parts by weight of dimethylformamide • Emulsifier: 0.5 part by weight of alkylaryl polyglycol ether
After 6 days, the efficacy in % is determined. 100% means that all the aphids have been killed; 0% means that no aphids have been killed.

[2] = tested on: Tetranychus urticae; assay: Tetranychus urticae spray test, OP-resistant (TETRUR); assay type: in vivo; conditions: 500 g/ha, bean leaf discs, after 6 days
Protocol: Tetranychus urticae—spray test, OP-resistant (TETRUR)
(§1) • Solvent: 78.0 parts by weight of acetone • 1.5 parts by weight of dimethylformamide • Emulsifier: 0.5 part by weight of alkylaryl polyglycol ether
After 6 days, the efficacy in % is determined. 100% means that all the spider mites have been killed; 0% means that no spider mites have been killed.

[3] = tested on: Nilaparvata lugens; assay: Nilaparvata lugens spray test (solvent dimethylformamide, 7 days); assay type: in vivo; conditions: rice plants, after 7 days
Protocol: Nilaparvata lugens—spray test
If the addition of ammonium salts or/and penetrants is required, these are each added in a concentration of 1000 ppm to the formulation solution.
After 7 days, the efficacy in % is determined.

[4] = log P by reversed-phase HPLC (EEC Directive 79/831 Annex V.A8); assay type: physicochemical; conditions: for chromatographic logP: reversed-phase C18 HPLC column; for logP [b] = log P (neutral): pH 7.8
From the text: NMR data and log P values: log P (HCOOH)=log P[a] log P (neutral)=log P[b]
^[a] […] Called log P (HCOOH) in the table.
^[b] […] Called log P (neutral) in the table.

[5] = tested on: Aphis gossypii; assay: Aphis gossypii spray test; assay type: in vivo; conditions: cotton plants, after 6 days
Protocol: Aphis gossypii—spray test
(§2) • Solvent: 7 parts by weight of dimethylformamide • Emulsifier: alkylaryl polyglycol ether
(§3) To produce further test concentrations, the preparation is diluted with emulsifier-containing water. If the addition of ammonium salts or/and penetrants is required, these are each added in a concentration of 1000 ppm to the formulation solution.
After 6 days, the kill in % is determined. 100% means that all the aphids have been killed; 0% means that no aphids have been killed.

[6] = tested on: Bemisia tabaci; assay: Bemisia tabaci spray test; assay type: in vivo; conditions: cotton plants, after 8 days
Protocol: Bemisia Tabaci—Spray Test
as §2, §3
After 8 days, the efficacy in % is determined. 100% means that all the whiteflies have been killed; 0% means that none of the whiteflies have been killed.

[7] = tested on: Meloidogyne incognita; conditions: 20 ppm, lettuce, after 14 days
Protocol: Meloidogvne incognita test (MELGIN)
• Solvent: 125.0 parts by weight of acetone
The lettuce seeds germinate and the plants develop. The galls develop on the roots.
After 14 days, the nematicidal efficacy in % is determined by the formation of galls.

[8] = tested on: Nephotettix cincticeps; assay: Nephotettix cincticeps test (NEPHCI); assay type: in vivo; conditions: 100 ppm, rice plants, after 14 days
Protocol: Nephotettix cincticeps test (NEPHCI)
In the event that addition of ammonium salts or/and penetrants (rapeseed oil methyl ester) is required, these are each pipetted in a concentration of 1000 ppm after the finished formulation solution has been diluted.
After 14 days, the kill in % is determined. 100% means that all leafhoppers have been killed; 0% means that none of the leafhoppers have been killed.

[9] = tested on: Boophilus microplus; assay: Boophilus microplus test (BOOPMI injection); assay type: in vivo; conditions: 20 μg/animal, injection into the abdomen, after 7 days
Protocol: Boophilus microplus test (BOOPMI injection) • Solvent: dimethyl sulfoxide To produce a suitable preparation of active compound, 10 mg of active compound are mixed with 0.5 ml of solvent and the concentrate is diluted with solvent to the desired concentration. The active compound solution is injected into the abdomen (Boophilus microplus), and the animals are transferred into dishes and stored in a climate-controlled room. Efficacy is assessed after 7 days by laying of fertile eggs. Eggs which are not visibly fertile are stored in a climate-controlled cabinet until the larvae hatch after about 42 days.

[10] = tested on: Phaedon cochleariae; assay: Phaedon cochleariae spray test (PHAECO); assay type: in vivo; conditions: 500 g/ha, Chinese cabbage leaf discs, after 7 days
Protocol: Phaedon cochleariae—spray test (PHAECO)
as §1
After 7 days, the efficacy in % is determined. 100% means that all the beetle larvae have been killed; 0% means that no beetle larvae have been killed.

[11] = tested on: Spodoptera frugiperda; assay: Spodoptera frugiperda spray test (SPODFR); assay type: in vivo; conditions: 500 g/ha, maize leaf discs, after 7 days
Protocol: Spodoptera frugiperda—spray test (SPODFR)
• Solvent: 78.0 parts by weight of acetone • 1.5 parts by weight of dimethylformamide • Emulsifier: 0.5 parts by weight of alkylaryl polyglycol ether
After 7 days, the efficacy in % is determined. 100% means that all the caterpillars have been killed; 0% means that no caterpillars have been killed.

[12] = acidic range, pH 2.7, 0.1% aqueous formic acid/acetonitrile, read-out: logP [a] = log P (HCOOH)
[13] = neutral range, pH 7.8, aqueous ammonium hydrogencarbonate/acetonitrile, read-out: logP [b] = log P (neutral)

chromatographic logP [4, 12]: 2.34
chromatographic logP [4, 13]: 3.23
SMILES: CCc1cnccc1-c1cnc2cc3c(cc2n1)OC(F)(F)O3 [Example I-1, 6-(3-Ethylpyridin-4-yl)-2,2-difluoro[1,3]dioxolo[4,5-g]quinoxaline]
efficacy (aphids killed) ([1]; 500 g/ha): 90%
efficacy (spider mites killed) [2]: 100%
efficacy (planthoppers killed) ([3]; 20 ppm): 100%
efficacy (kill of aphids) ([5]; 20 ppm): 85%

logP [a] = log P (HCOOH) ([4]; pH 2.7): 4.79
SMILES: CCSc1ccccc1-c1cnc2ccc(C(F)(F)F)cc2n1 [Example I-36]
efficacy (beetle larvae killed) [10]: 83%
efficacy (aphids killed) ([1]; 500 g/ha): 90%
efficacy (spider mites killed) [2]: 90%
efficacy (laying of fertile eggs) [9]: 90%

logP [a] = log P (HCOOH) ([4]; pH 2.7): 4.80
logP [b] = log P (neutral) [4]: 4.78
SMILES: CCSc1ccccc1-c1cnc2cc(C(F)(F)F)ccc2n1 [Example I-14]
efficacy (beetle larvae killed) [10]: 100%
efficacy (spider mites killed) [2]: 100%
efficacy (caterpillars killed) [11]: 100%

logP [a] = log P (HCOOH) ([4]; pH 2.7): 4.73
SMILES: CCSc1ccccc1-c1cnc2cc3c(cc2n1)OC(F)(F)O3 [Example I-34]
efficacy (beetle larvae killed) [10]: 100%
efficacy (spider mites killed) [2]: 90%

Continued, compound first:

SMILES: CCc1cnccc1-c1cnc2cc(C(F)(F)F)ccc2n1 [Example I-26]
efficacy (spider mites killed) [2]: 90%
efficacy (planthoppers killed) ([3]; 100 ppm): 80%
efficacy (whiteflies killed) ([6]; 100 ppm): 96%
logP [a] = log P (HCOOH) ([4]; pH 2.7): 2.53
logP [b] = log P (neutral) [4]: 3.28

SMILES: FC1(F)Oc2cc3ncc(-c4ccncc4)nc3cc2O1 [Example I-74]
nematicidal efficacy (formation of galls) [7]: 90%
logP [a] = log P (HCOOH) ([4]; acidic range, pH 2.7, 0.1% aqueous formic acid/acetonitrile): 1.98

SMILES: Cc1cnccc1-c1cnc2cc(C(F)(F)F)ccc2n1 [Example I-2, 2-(3-Methylpyridin-4-yl)-6-(trifluoromethyl)quinoxaline]
efficacy (aphids killed) ([1]; 750 g/ha): 90%
efficacy (planthoppers killed) ([3]; 20 ppm): 100%
efficacy (whiteflies killed) ([6]; 20 ppm): 100%
efficacy (kill of leafhoppers) [8]: 100%
chromatographic logP [4, 12]: 2.14
chromatographic logP [4, 13]: 2.89
efficacy (kill of aphids) ([5]; 100 ppm): 80%
efficacy (laying of fertile eggs) [9]: 85%

SMILES: CC[S+]([O-])c1ccccc1-c1cnc2cc(C(F)(F)F)ccc2n1 (stereo not shown) [Example I-15]
efficacy (beetle larvae killed) [10]: 83%
efficacy (spider mites killed) [2]: 100%
efficacy (caterpillars killed) [11]: 100%
efficacy (whiteflies killed) ([6]; 100 ppm): 90%
logP [a] = log P (HCOOH) ([4]; pH 2.7): 2.79
logP [b] = log P (neutral) [4]: 2.78
